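Where inhibition never reached the appropriate level, the endpoint shown equals the highest concentration tested. Otherwise, values were interpolated linearly from a five-concentration, 48-hour dose response in 96-well plates. GI50 = concentration required for 50% inhibition of growth. TGI marks complete inhibition of growth.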
Key:
Test in all cases: NCI anticancer screen, dose series, 48 h
[1] = system: CCRF-CEM leukemia
[2] = system: EKVX NSCLC
[3] = system: HCC-2998 colon
[4] = system: HCT-15 colon
[5] = system: HOP-92 NSCLC
[6] = system: HS 578T breast
[7] = system: LOX IMVI melanoma
[8] = system: MALME-3M melanoma
[9] = system: NCI-H226 lung
[10] = system: SK-MEL-5 melanoma
[11] = system: SK-OV-3 ovarian
[12] = system: SN12C renal
[13] = system: T-47D breast
[14] = system: UACC-257 melanoma

Structure (SMILES)	TGI [1]	TGI [2]	TGI [3]	TGI [4]	TGI [5]	TGI [6]	TGI [7]	TGI [8]	TGI [9]	TGI [10]	TGI [11]	TGI [12]	TGI [13]	TGI [14]	GI50 [3]
COc1ccc2c(c1)-c1c(c3ccccc3n1CCN1CCCCC1)CC2	74 µM	70.5 µM	19.2 µM	27.7 µM	54.4 µM	> 65.7 µM	33.3 µM	39.3 µM	37.5 µM	30.1 µM	53 µM	> 83.9 µM	> 94.4 µM	54.9 µM	
C/C(=C\c1csc(C)n1)[C@@H]1C[C@@H]2O[C@]2(C)CCC[C@H](C)[C@H](O)[C@@H](C)C(=O)C(C)(C)[C@@H](O)CC(=O)O1 (tested in a mixture with another compound)		> 1 µM		> 1 µM	> 1 µM	> 1 µM	> 1 µM	> 1 µM	> 1 µM	> 1 µM	> 0.72 µM	> 1 µM	> 1 µM	> 1 µM	0.00305 µM
O=c1c2cc([N+](=O)[O-])cnc2sn1-c1ccc(Oc2ccccc2)cc1	> 100 µM	> 100 µM	> 100 µM	> 100 µM	90.2 µM	96.5 µM	> 100 µM	74.9 µM	> 100 µM	> 100 µM	87.5 µM	> 100 µM	56.6 µM	> 100 µM	
O=c1oc2ccccc2c(O)c1C(c1ccc2ccccc2c1)c1c(O)c2ccccc2oc1=O	> 100 µM	> 100 µM	32.8 µM	47.5 µM	> 100 µM	70.6 µM	> 100 µM	57.5 µM	67.9 µM	54.4 µM	> 100 µM	45.3 µM	> 100 µM	> 100 µM	
[N-]=[N+]=Nc1cc(=O)n(-c2ccccc2)c(=O)n1-c1ccccc1	> 100 µM	> 100 µM			> 100 µM	> 100 µM		> 100 µM	> 100 µM	> 100 µM	> 100 µM	> 100 µM	> 100 µM	> 100 µM	
COCC1OCCN1C (stereo not drawn)	> 100 µM	> 100 µM		> 100 µM	> 100 µM	> 100 µM	> 100 µM	> 100 µM	> 100 µM	> 100 µM	> 100 µM		> 100 µM	> 100 µM	
C=C1[C@H](OCC(C)C)[C@@H](OCC(C)C)[C@@H](O)C(C)(C)/C=C/[C@H](C)C(=O)[C@@]2(O)C[C@H](C)[C@H](O)[C@@H]2[C@H]1OCC(C)C			> 7.5 µM	> 7.5 µM	> 7.5 µM	> 7.5 µM	> 7.5 µM			> 7.5 µM	> 7.5 µM	> 7.5 µM	> 7.5 µM	> 7.5 µM	
COc1c(C(=O)O)cccc1-c1cccc(C(=O)NCCN(CCNC(=O)c2cccc(-c3cccc(C(=O)O)c3OC)c2OC)CCNC(=O)c2cccc(-c3cccc(C(=O)O)c3OC)c2OC)c1OC	> 100 µM	> 100 µM	79 µM	> 100 µM	> 100 µM	81.1 µM	> 100 µM	88.1 µM	> 100 µM	37.6 µM	> 100 µM	89.9 µM	> 100 µM	> 100 µM	
O=C(/C=C/c1c(O)c2ccccc2[nH]c1=O)CC(=O)C(=O)Nc1cccc(O)c1	> 100 µM	> 100 µM	> 100 µM	> 100 µM	> 100 µM	> 100 µM	> 100 µM	> 100 µM	> 100 µM	> 100 µM	> 100 µM	> 100 µM	> 100 µM	> 100 µM	
c1ccc2c(OCC3CO3)ccc(OCC3CO3)c2c1 (stereo not drawn)	11.2 µM	32.7 µM	24.1 µM	14.9 µM	18.4 µM	9.73 µM	2.08 µM	20.5 µM	27.7 µM	19 µM	26.6 µM	11.5 µM	15.4 µM	20 µM	
COc1ccc(OC)c2c(=O)cc(-c3ccccc3)[nH]c12	> 100 µM	> 100 µM	> 100 µM	> 100 µM		> 100 µM	> 100 µM	> 100 µM	> 100 µM		> 100 µM	> 100 µM	> 100 µM	> 100 µM	
O=c1[nH]c2nccn2c(Cl)c1Br	46.7 µM	40.3 µM	36 µM	33.2 µM	78.7 µM	66 µM	34.4 µM	38.3 µM	89.4 µM	64.9 µM	86.9 µM	67.5 µM	67.8 µM	45.7 µM	
COc1ccc(-c2cc(=O)c3c(O)c(OC)c(O)cc3o2)cc1O	> 31.8 µM	> 87.1 µM	> 100 µM	> 100 µM	> 85.9 µM	87.3 µM	32.7 µM	> 25.8 µM	> 90.8 µM	14.9 µM	> 93.8 µM	> 100 µM	> 100 µM	> 100 µM	
CCOC(=O)C(NC(=O)NCc1ccc(F)cc1)C(F)(F)F (stereo not drawn)	> 100 µM	> 100 µM	> 100 µM	> 100 µM		> 100 µM	> 100 µM			> 100 µM	> 100 µM	> 100 µM	> 100 µM	> 100 µM	
CC1=C(C#N)C(=O)N(/N=C/c2ccc(Cl)cc2)C(=O)/C1=c1\o/c(=C2/C(=O)N(/N=C/c3ccc(Cl)cc3)C(=O)C(C#N)=C2C)c2nccnc12	> 100 µM	> 100 µM	> 100 µM	> 100 µM	> 100 µM	> 100 µM	> 100 µM	> 100 µM	> 100 µM	> 100 µM	> 100 µM	> 100 µM	> 100 µM	> 100 µM	
CCCOc1ccc(/C=C/C2=[N+](CCO)CCO2)cc1	> 100 µM	> 100 µM	> 100 µM	> 100 µM	> 100 µM	> 100 µM		> 100 µM	> 100 µM	> 100 µM	> 100 µM	> 100 µM	> 100 µM	> 100 µM	

— PubChem BioAssay (NCI)
